The source of these data is patent publication US6165984A, “Naringin and naringenin as inhibitors of acyl CoA-cholesterol-o-acyltransferase” (Korea Institute of Science & Technology, priority 1997, dated 2000).

Each structure is given as a SMILES string.

Data set [1] deals with ICR mice. Description: Acute oral toxicity of naringin or naringenin in mice. It counts as in vivo, mouse. The following applies: for toxicity or mitogenicity: tests using mice. The method, then: 7 to 8 week-old, specific pathogen-free ICR female mice (6 heads) each weighing about 25 to 29 g and male mice (6 heads) each weighing about 34 to 38 g were bred under a condition of temperature 22±1° C., moisture 55±5% and photoperiod 12L/12D. Fodder (Cheiljedang Co., mouse and rat fodder) and water were sterilized and fed to the mice.
Naringin or naringenin was dissolved in 0.5% Tween 80 to a concentration of 100 mg/ml, and the solution was orally administered to the mice in an amount of 0.2 ml per 20 g of mouse body weight. […] The weight changes of the mice were recorded every day to examine the effect of naringin or naringenin. Further, on the 10th day, the mice were sacrificed and the internal organs were visually examined.

Data set [2] in a line: Plasma total cholesterol, HDL-cholesterol and neutral lipid in rats on high-cholesterol diet (Example 4). The following applies: 1% cholesterol diet plus 0.1% compound, six weeks; for HDL-C: control 22.2; for TG (triglyceride): control 99.2 ± 18.9; for Total-C (total plasma cholesterol): control 147.8 ± 34.8. The format is in vivo, Sprague-Dawley rat. From the text: (§1) 30 four-week-old Sprague-Dawley rats (Taihan laboratory animal center, Korea) each weighing about 90 to 110 g were evenly divided into three dietary groups by a randomized block design. The rats of the three groups were fed with three different high-cholesterol diets, i.e., AIN-76 laboratory animal diet (ICN Biochemicals, Cleveland, Ohio, U.S.A.) containing 1% cholesterol (Control group), and 1% cholesterol plus 0.1% naringin or naringenin, respectively.
The effect of administering naringin or naringenin to rats on the plasma cholesterol and neutral lipid content was determined as follows.
(§2) Blood samples were taken from the rats of the three dietary groups and plasma HDL fractions were separated therefrom by using HDL-cholesterol reagent (Sigma Chemical Co., Cat. No. 352-3) containing dextran-sulfate. Total cholesterol and HDL-cholesterol levels were determined by using Sigma Diagnostic Kit Cat. No. 352-100(Sigma Chemical Co., U.S.A.) (Allain et al., Clin. Chem., 20, 470-475(1974)). Neutral lipid level was determined by using Sigma Diagnostic Kit Cat. No. 339-50(Bucolo, G. and David, H., Clin. Chem., 19, 476-482(1973)). The result is shown in Table III, wherein the total plasma cholesterol levels in naringin and naringenin-fed rat groups decreased by 32% and 18%, respectively, as compared with that of the control group.

In data set [3] the test system is acyl CoA-cholesterol-o-acyltransferase (ACAT). The experiment in a line: ACAT activity in liver microsomes of naringin- or naringenin-fed rats (Example 5). As to conditions: liver microsomes of rats fed 0.1% compound in 1% cholesterol diet; for ACAT activity: control 806.2 ± 105.2; for % Inhibition on ACAT activity: vs control group. It counts as in vivo, Sprague-Dawley rat.
Source text: as §1
To determine the effects of naringin and naringenin feeding to rats on the activity of ACAT, microsomes were separated from the liver tissue to be used as an enzyme source.
First, the rats of the three groups prepared in Example 3 were sacrificed by decapitation and the livers were excised. 1 g each of the livers was homogenized in 5 ml of homogenization medium (0.1 M KH2 PO4, pH 7.4, 0.1 mM EDTA and 10 mM β-mercaptoethanol). The homogenate was centrifuged at 3,000×g for 10 min. at 4° C. and the supernatant thus obtained was centrifuged at 15,000×g for 15 min. at 4° C. to obtain a supernatant. The supernatant was put into an ultracentrifuge tube (Beckman) and centrifuged at 100,000×g for 1 hour at 4° C. to obtain microsomal pellets, which were then suspended in 3 ml of the homogenization medium and centrifuged at 100,000×g for 1 hour at 4° C. The pellets thus obtained were suspended in 1 ml of the homogenization medium. The concentration of proteins in the resulting suspension was determined by Lowry's method and then adjusted to 4 to 8 mg/ml. The resulting suspension was stored in a deep freezer (Biofreezer, Forma Scientific Inc.).
6.67 μl of 1 mg/ml cholesterol solution in acetone was mixed with 6 μl of 10% Triton WR-1339(Sigma Co.) in acetone and, then, acetone was removed from the mixture by evaporation using nitrogen gas. Distilled water was added to the resulting mixture in an amount to adjust the concentration of cholesterol to […].
To 10 μl of the resulting aqueous cholesterol solution were added 10 μl of 1 M KH2 PO4 (pH 7.4), 5 μl of 0.6 mM bovine serum albumin (BSA), 10 μl of microsome solution obtained in (Step 1) and 55 μl of distilled water (total 90 μl). The mixture was pre-incubated in a waterbath at 37° C. for 30 min.
10 μl of (1-^14 C) oleoyl-CoA solution (0.05 μCi, final concentration: 10 μM) was added to the pre-incubated mixture and the resulting mixture was incubated in a waterbath at 37° C. for 30 min. […]
200 μl of the resulting supernatant was put in a scintillation bottle and 4 ml of scintillation fluid (Lumac) was added thereto. The mixture was assayed for radioactivity with 1450 Microbeta liquid scintillation counter (Wallacoy, Finland). ACAT activity was calculated as picomoles of cholesteryl oleate synthesized per min. per mg protein (pmoles/min/mg protein).
Background: Liver microsomes are a subcellular fraction often used to study metabolism.

Data set [4] in a line: Blood total cholesterol and triglyceride in cholesterol-fed rabbits (Example 6). The format is in vivo, New Zealand White rabbit. The following applies: 1% cholesterol diet, 6 weeks, 1 mg/kg Lovastatin, 0.1% naringin or naringenin; for Triglyceride: control 56; for Total cholesterol: control 1143. The procedure:
as §2, with “U.S.A.) (Allain” left out, “group. […] RC4 diet comprises 7.6% moisture, 22.8% crude protein, 2.8% crude fat, 8.8% crude ash, 14.4% crude cellulose and 43.6% soluble nitrogen-free substances. The rabbits were bred for 6 weeks while being allowed free access to the diets and water. Further, blood samples were taken from the rabbits and total cholesterol and triglyceride levels were determined in accordance with the same procedure in Example 4.” for “group.”

Data set [5] relates to liver function. The following applies: in vivo.
For data set [6] the following is noted: literature; cited from earlier work.
[7] abbreviates: single oral dose, 1,000 mg/kg, mice.

As to `C[C@@H]1O[C@@H](O[C@H]2[C@H](Oc3cc(O)c4c(c3)O[C@H](c3ccc(O)cc3)CC4=O)O[C@H](CO)[C@@H](O)[C@@H]2O)[C@H](O)[C@H](O)[C@H]1O` [naringin, Naringin], the “corresponding oral administration dose for a person weighing 50 kg” value in data set [1] (mouse, in vivo) was 50-100 g/kg body weight. Further, in data set [1] (setting [7]), the “survival at day 10” value was “All the mice were alive”. In addition, the toxicity or mitogenicity entry in data set [1] is “little toxicity or mitogenicity”. In data set [2], the “decrease of total plasma cholesterol level compared with control group” value is given as 32%, the HDL-C was 24.0 mg/dL, the “TG (triglyceride)” value stood at 86.7 ± 14.6 mg/dL and the “Total-C (total plasma cholesterol)” value was found to be 100.8 ± 16.1 mg/dL. In addition, in data set [3], the ACAT activity is reported as 643.5 ± 80.7 pmole/min/mg protein and the “% Inhibition on ACAT activity” value is on record as 20.2%. In data set [4], this molecule returned a Triglyceride of 72 mg/dL and a Total cholesterol of 1367 mg/dL. In data set [5], the “adverse effects on the liver function” value is “no adverse effects on the liver function”. For the same molecule, the reported activities entry in data set [6] was “anti-cancer, anti-viral and cholesterol lowering activities”.

Consider `O=C1C[C@@H](c2ccc(O)cc2)Oc2cc(O)cc(O)c21` [naringenin], for which, in data set [1] (setting [7]), the “survival at day 10” value was “All the mice were alive”. Further, in data set [1] (single oral dose, 1,000 mg/kg, mice, 10 day test period), the weight loss result was “no weight loss”. In addition, the toxicity entry in data set [1] (single oral dose, 1,000 mg/kg, mice, 10 days) was “no toxicity”. The “pathological abnormality at autopsy” value in data set [1] (single oral dose, 1,000 mg/kg, mice, day 10) was “did not develop any pathological abnormality”. Moreover, in data set [1], the toxicity or mitogenicity entry is reported as “little toxicity or mitogenicity”. In data set [2], the “decrease of total plasma cholesterol level compared with control group” value came to 18%, the HDL-C was 23.4 mg/dL, the “TG (triglyceride)” value amounted to 103.4 ± 18.2 mg/dL and the “Total-C (total plasma cholesterol)” value was determined as 120.9 ± 25.9 mg/dL. Moreover, in data set [3], the ACAT activity was 666.3 ± 65.3 pmole/min/mg protein and the “% Inhibition on ACAT activity” value was 17.4%. Moreover, in data set [4], the Triglyceride is 70 mg/dL and the Total cholesterol worked out at 1350 mg/dL. Also, the “adverse effects on the liver function” value in data set [5] is “no adverse effects on the liver function”. In data set [6], the reported activities result is “anti-cancer, anti-viral and cholesterol lowering activities”.
